Source: patent US10877024B2, “Methods of determining interferon having direct inhibitory effects on tumors and uses thereof” (SUPERLAB FAR EAST LIMITED, priority 2015, dated 2020)

Assays:
[1] = tested on: procaspase-3, cleaved caspase-3, procaspase-8, cleaved caspase-8, PARP; test: Apoptosis-related molecular markers by Western Blot; assay type: cell-based, human; conditions: A549 and SW620 cells, 24 hr or 48 hr; interferons 10 mcg/ml
Source text: Thereafter, apoptosis-related molecular markers were monitored by Western Blot. The primary antibodies used were mouse monoclonal anti-beta-tubulin (1:2000, Cat #: CW0098A) and mouse monoclonal anti-GAPDH (1:2000, Cat #: CW0100A) (Kangwei Biotechnology, China); mouse monoclonal anti-PARP (1:1000, Cat #: sc-2007, Santa Cruz Biotechnology, Inc.); rabbit monoclonal anti-procaspase 3 (1:1000, Cat #: 9665), and rabbit polyclonal anti-cleaved caspase 3 (1:1000, Cat #: 9661) (Cell Signaling Technology, USA); goat polyclonal anti-procaspase 8 (1:1000, Cat #: sc-6136, Santa Cruz Biotechnology, Inc); rabbit monoclonal anti-cleaved caspase 8 (1:1000, Cat #: 9496) (Cell Signaling Technology, USA).

[2] = tested on: Human Cervical Cancer Hela Xenografts; test: rSIFN-co on human cervical cancer Hela xenografts in nude mice; assay type: in vivo; conditions: 5 mg/kg i.v. days 1 and 13
Protocol: Then 1.5 mm^3 fragments were prepared for s.c. implantation into the animals.

[3] = tested on: Human Colon Cancer HT-29 Xenografts; test: rSIFN-co on human colon cancer HT-29 xenografts in nude mice; assay type: in vivo; conditions: 5 mg/kg i.v. days 1 and 10
[4] = tested on: human hepatoma SMMC-7721 xenografts; test: rSIFN-co on human hepatoma SMMC-7721 xenografts in nude mice; conditions: 5 mg/kg i.v.
Protocol: The test article was used without dilution. It was stored at 4° C. until thawed for injection.
The animals used were 4-6 weeks old male BALB/cA nu/nu mice, weighing about 23±2 g, obtained from the Shanghai Institute of Materia Medica (Shanghai, P.R. China). […] Animals were housed 6 to a cage. They were ear-marked with ear hole punch identification. The room temperature was maintained at 25° C.±+1° C. Lighting was set at 12 hr on and 12 hr off. Food was provided ad libitum. City tap water, filtered with a 5 micrometer (μm) filter, was provided to the animals ad libitum via water bottles.
The test article was administered in a volume of 0.05 ml-0.15 ml per mouse per treatment, depending on the group to which the animal was assigned. […] Normal saline was injected in a volume of 0.15 ml per mouse, which was used as vehicle control.
Animals were assigned to treatment groups randomly. Initially, all animals were placed in one large animal cage. For assignment to the study, they were later separately housed, with 6 animals per cage per treatment group. Groups 1 and 2 are Control groups in which the animals were each administered the vehicle every other day after the first treatment. […] Tumor growth was monitored by measuring the length and width of each tumor twice a week during the course of the study. Each animal was also weighed twice a week during the course of the study.
Before commencement of this study, the xenografts were passaged twice in nude mice. Under sterile conditions, well-grown tumors were cut into 1.5 mm^3 fragments and one such fragment was injected by trocar needle into the right flank of each study animal. […] Individual tumor size (length and width) was measured twice per week with microcalipers. Tumor volume (V) was calculated using the formula: V=(length×width^2)/2. Individual relative tumor volume (RTV) was calculated using the formula: RTV=Vt/V0, where Vt is the tumor volume on the day of measurement and V0 is the tumor volume on the day of first treatment. Therapeutic effect of the test article or control article was expressed in terms of T/C (%), using the formula: T/C (%)=(mean RTV of the treated group/mean RTV of the control group)×100%; and in terms of % Inhibition, using the formula: % Inhibition=100%−T/C %.

[5] = tested on: human lung cancer SPC-A4 xenografts; conditions: 5 mg/kg i.v. days 1 and 6
Protocol: Under sterile conditions, well-grown tumors were cut into 1.5 mm^3 fragments and one such fragment was injected by trocar needle into the right flank of each study animal. […] Individual tumor size (length and width) was measured twice per week with microcalipers. Tumor volume (V) was calculated using the formula: V=(length×width^2)/2. Individual relative tumor volume (RTV) was calculated using the formula: RTV=Vt/V0, where Vt is the tumor volume on the day of measurement and V0 is the tumor volume on the day of first treatment. Therapeutic effect of the test article or control article was expressed in terms of T/C (%), using the formula: T/C (%)=(mean RTV of the treated group/mean RTV of the control group)×100%; and in terms of % Inhibition, using the formula: % Inhibition=100%−T/C %.
The 1.5 mm^3 fragments were then used for s.c. implantation into the test animals. The body weight of the animals averaged 22±2 g at dose initiation.

| SMILES | level of cleaved caspase-3 and cleaved caspase-8 [1] | level of procaspase-3, procaspase-8 and PARP [1] | TV(mm^3, mean ± SD) (D 0) ([2]; day 0) | % Inhibition ([2]; day 28) | T/C (%) ([2]; day 28) | TV(mm^3, mean ± SD) (D 28) ([2]; day 28) | TV(mm^3, mean ± SD) (D 0) ([3]; day 0) | % Inhibition ([3]; day 28) | T/C (%) ([3]; day 28) | TV(mm^3, mean ± SD) (D 28) ([3]; day 28) | TV(mm^3, mean ± SD) (D 0) ([4]; day 0) | mean body weight ([4]; day 0) | % Inhibition ([4]; day 21) | TV(mm^3, mean ± SD) (D 21) ([4]; day 21) | mean body weight ([4]; day 21) | TV(mm^3, mean ± SD) (D 0) ([5]; day 0) | % Inhibition ([5]; day 21) | RTV (mean ± SD) ([5]; day 21) | T/C (%) ([5]; day 21) | TV(mm^3, mean ± SD) (D 21) ([5]; day 21) |
| --- | --- | --- | --- | --- | --- | --- | --- | --- | --- | --- | --- | --- | --- | --- | --- | --- | --- | --- | --- | --- |
| O=c1[nH]cc(F)c(=O)[nH]1 [5FU, reference compound] | enhanced level | significant reduction |  |  |  |  |  |  |  |  |  |  |  |  |  |  |  |  |  |  |
| CO[C@@]12[C@H](COC(N)=O)C3=C(C(=O)C(C)=C(N)C3=O)N1C[C@@H]1N[C@@H]12 [MMC, Mitomycin C, reference compound] |  |  | 130 ± 28 mm^3 | 60.08% | 39.92% | 676 ± 358 mm^3 | 132 ± 22 mm^3 | 62.9% | 37.10% | 395 ± 95 mm^3 | 125 ± 35 mm^3 | 23.9 gram | 47.18% | 621 ± 247 mm^3 | 25.4 gram | 166 ± 42 mm^3 | 72.87% | 11.54 ± 4.37 | 27.13% | 1831 ± 540 mm^3 |
